Results published in ChEMBL document CHEMBL1138384, “Rational design of a nonpeptide general chemical scaffold for reversible inhibition of PDZ domain interactions” (Bioorg Med Chem Lett, 2007).
Active and inactive are the calls of the source. The calls are words filed in the database; no cut-off is given here.

How the values were obtained:
Homo sapiens [1] = organism: Homo sapiens; assay: Displacement of peptide probe from MAGI3 PDZ2 domain by fluorescent polarization method
[2] = target: Cystic fibrosis transmembrane conductance regulator (Homo sapiens) (UniProt P13569); assay: Inhibition of […]-mediated chloride transport in human bronchial epithelial cells by voltage clamp method; type: cell-based; conditions: Epithelial cell
HCT-116 = assay: Effect on HCT116 cells expressing wild-type PTEN assessed as 2-fold increase in PKB activity at 50 uM; type: functional, cell-based; conditions: Homo sapiens
HEK293 = assay: Inhibition of receptor recycling in HEK293 cells assessed as reduction of adrenergic beta-2 receptor expression; type: functional, cell-based; conditions: Homo sapiens
[3] = Solubility in water; type: physicochemical
Homo sapiens [4] = organism: Homo sapiens; assay: Inhibition of MAGI3-PTEN interaction at 10 uM
Homo sapiens [5] = organism: Homo sapiens; assay: Inhibition of MAGI3-PTEN interaction assessed as activation of PKB at 5 uM

Chain of Cystic fibrosis transmembrane conductance regulator (Homo sapiens) (P13569 whole entry, looked up): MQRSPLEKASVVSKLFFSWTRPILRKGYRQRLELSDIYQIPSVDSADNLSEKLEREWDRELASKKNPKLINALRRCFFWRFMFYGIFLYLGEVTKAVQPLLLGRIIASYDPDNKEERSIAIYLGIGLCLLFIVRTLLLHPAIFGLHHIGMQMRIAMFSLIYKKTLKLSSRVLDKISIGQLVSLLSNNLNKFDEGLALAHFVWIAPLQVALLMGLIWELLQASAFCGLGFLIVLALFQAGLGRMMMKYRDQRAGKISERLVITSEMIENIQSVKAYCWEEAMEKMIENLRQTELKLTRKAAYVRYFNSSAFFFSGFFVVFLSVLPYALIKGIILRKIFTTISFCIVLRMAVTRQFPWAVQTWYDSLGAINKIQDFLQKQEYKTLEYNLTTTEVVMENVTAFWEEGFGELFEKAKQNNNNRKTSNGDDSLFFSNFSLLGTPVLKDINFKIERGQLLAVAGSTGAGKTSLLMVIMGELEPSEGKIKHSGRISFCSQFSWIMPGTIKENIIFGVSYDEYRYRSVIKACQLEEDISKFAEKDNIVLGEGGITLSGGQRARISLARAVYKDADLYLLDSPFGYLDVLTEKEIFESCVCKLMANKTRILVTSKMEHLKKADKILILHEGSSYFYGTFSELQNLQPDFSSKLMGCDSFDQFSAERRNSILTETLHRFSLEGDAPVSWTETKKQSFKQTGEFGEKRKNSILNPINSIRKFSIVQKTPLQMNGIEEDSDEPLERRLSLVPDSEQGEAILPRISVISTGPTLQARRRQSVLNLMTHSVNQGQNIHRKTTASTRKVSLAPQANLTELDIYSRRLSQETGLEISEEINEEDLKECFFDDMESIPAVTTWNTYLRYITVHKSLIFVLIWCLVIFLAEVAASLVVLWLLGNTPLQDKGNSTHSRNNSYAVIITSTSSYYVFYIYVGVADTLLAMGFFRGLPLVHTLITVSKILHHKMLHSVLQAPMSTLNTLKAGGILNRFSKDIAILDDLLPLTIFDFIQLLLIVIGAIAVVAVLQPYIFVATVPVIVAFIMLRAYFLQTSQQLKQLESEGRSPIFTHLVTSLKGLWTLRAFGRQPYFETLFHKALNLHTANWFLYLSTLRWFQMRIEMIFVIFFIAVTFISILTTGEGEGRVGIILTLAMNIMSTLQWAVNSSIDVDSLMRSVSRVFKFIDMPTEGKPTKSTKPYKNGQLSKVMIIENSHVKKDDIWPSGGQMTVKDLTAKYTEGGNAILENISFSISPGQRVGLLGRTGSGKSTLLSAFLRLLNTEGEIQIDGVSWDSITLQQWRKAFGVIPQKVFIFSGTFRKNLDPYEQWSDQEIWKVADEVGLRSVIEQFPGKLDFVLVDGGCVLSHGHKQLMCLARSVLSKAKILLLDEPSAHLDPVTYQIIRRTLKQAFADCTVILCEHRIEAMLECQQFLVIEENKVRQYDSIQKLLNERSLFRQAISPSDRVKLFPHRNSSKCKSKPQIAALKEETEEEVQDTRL

SMILES	Activity (Homo sapiens [1])	Activity [2]	Activity (HCT-116)	Activity (HEK293)	solubility [3] [mM]	inhibition (Homo sapiens [4]) [%]	Activity (Homo sapiens [5])
CCCCC(O)c1cc2cc(C)c(C(=O)[O-])cc2n1CCc1ccccc1.[Na+] (configuration not stated)	Active	Dose-dependent effect	Active	Dose-dependent effect	> 30		
CCCCCc1c(CO)c2cc(C)c(C(=O)O)cc2n1CCc1ccccc1						50	Active
